Data: patent US20240067613A1, “NOVEL QUINAZOLINE DERIVATIVES AS SOS1 INHIBITORS AND USE THEREOF” (HANMI PHARMACEUTICAL CO., LTD., priority 2020, published 2024)

Target: T1, SOS1 binding to KRAS G12C (Homo sapiens, UniProt Q07889)
T1 construct: consisting of amino acid residues 564 to 1049 which are the catalytic domain; purchased Reaction Biology Corporation MSC-11-502 (SOS1-Strep); MSC-11-538 (KRAS G12C)
T1 sequence (Q07889 564-1049): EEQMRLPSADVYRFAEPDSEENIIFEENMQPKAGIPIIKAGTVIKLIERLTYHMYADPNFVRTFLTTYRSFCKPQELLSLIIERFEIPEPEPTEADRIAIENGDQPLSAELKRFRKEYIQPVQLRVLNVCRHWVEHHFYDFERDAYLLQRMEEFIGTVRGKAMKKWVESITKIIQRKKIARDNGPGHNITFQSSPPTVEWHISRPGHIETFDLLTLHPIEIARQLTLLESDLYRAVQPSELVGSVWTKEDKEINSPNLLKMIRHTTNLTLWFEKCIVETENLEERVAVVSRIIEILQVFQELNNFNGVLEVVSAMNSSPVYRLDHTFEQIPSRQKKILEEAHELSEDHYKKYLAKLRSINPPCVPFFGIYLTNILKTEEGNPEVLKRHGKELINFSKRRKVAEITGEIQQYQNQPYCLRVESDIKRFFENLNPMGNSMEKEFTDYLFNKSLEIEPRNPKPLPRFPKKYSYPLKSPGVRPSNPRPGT
Experiment: SOS1 GTP substitution inhibition test (HTRF/TR-FRET, KRAS G12C-SOS1 binding inhibitory ability)
Format: biochemical
Conditions: HTRF, GST-KRAS G12C (2-169), SOS1-Strep (564-1049), 1.6, 8, 40, 200, 1,000 nM
Protocol: In order to determine whether the substitution function of SOS1 binding to KRAS G12C is inhibited by the above-described example compounds, a homogeneous time-resolved fluorescence (HTRF) test was performed using G12C(#MSC-11-538) and SOS1-Strep(#MSC-11-502) purchased from Reaction Biology Corporation (MA, USA). The activity of SOS1 enzyme was determined by measuring the amount of GTP bound to KRAS G12C proteins, using the principle of time-resolved fluorescence energy transfer (TR-FRET). Based on the principle that terbium bound to the GST-binding antibody of the GST-KRAS G12C protein acts as a donor of fluorescence resonance energy transfer (FRET), and the GTP bound to the KRAS G12C protein is labeled with the fluorescent agent DY-647P1 and acts as a receiver, when the more GTP is bound to the KRAS G12C protein by the substitution reaction of SOS1 according to this test, the higher HTRF or FRET signal is measured. To summarize, glutathione S-transferase (GST)-tagged KRAS G12C proteins (consisting of amino acid residues 2 to 169) required for the reaction, streptavidin-tagged SOS1 proteins (consisting of amino acid residues 564 to 1049 which are the catalytic domain), anti-GST antibody (#61[…]) purchased from CISBIO corporation, nucleic acid (#NU-820-647P1) purchased from Jena Bioscience GmbH were mixed in a buffer solution formed from 10 mM HEPES pH7.4, 150 mM NaCl, 5 mM MgCl2, and 1 mM dithiothreitol (DTT), and the mixture was added to a 384-well plate and reacted at room temperature. Next, FRET signals were measured with a Perkin Elmer Envision microplate reader. In this case, an excitation signal (excitation) was measured at 320 nm, and an emission signal (emission) was measured at 615/665 nm. The fluorescence measurement value when the SOS1 protein was not included was calculated as a background signal value, and the background signal value was subtracted from all of the measured HTRF values. The fluorescence measurement value when the synthesized compound was not included was measured as a control value, and this value was selected as a reference point of 100%. For each of the example compounds, fluorescence was measured at concentrations of 1.6, 8, 40, 200, and 1,000 nM (5 points, 5-fold), and the 50% activity inhibition value (IC50) of each of the compounds was calculated using GraphPad Prism. When the IC50 value was 50 nM or less, the inhibitory ability was denoted as +++. When the IC50 value was more than 50 nM and 100 nM or less, the inhibitory ability was denoted as ++. When the IC50 value was more than 100 nM, the inhibitory ability was denoted as +.

SMILES	IC50 [nM]
Cc1nc(N[C@H](C)c2cc(N)cc(C(F)(F)F)c2)c2cc(O[C@H]3CCOC3)c(C(=O)N3CCOCC3)cc2n1 [Example 27, (4-(((R)-1-(3-amino-5-(trifluoromethyl)phenyl)ethyl)amino)-2-methyl-6-(((S)-tetrahydrofuran-3-yl)oxy)quinazolin-7-yl)(morpholino)methanone]	50 to 100
COc1cc2c(N[C@H](C)c3cc(N)cc(-c4ccoc4)c3)nc(C)nc2cc1C(=O)N1CCOCC1 [Example 28, (R)-(4-((1-(3-amino-5-(furan-3-yl)phenyl)ethyl)amino)-6-methoxy-2-methylquinazolin-7-yl)(morpholino)methanone]	≤ 50
COc1cc2c(N[C@H](C)c3cc(N)cc(C(F)F)c3)nc(C)nc2cc1C(=O)N1CCOCC1 [Example 29, (R)-(4-((1-(3-amino-5-(difluoromethyl)phenyl)ethyl)amino)-6-methoxy-2-methylquinazolin-7-yl)(morpholino)methanone]	≤ 50
COc1cc2c(N[C@H](C)c3cc(N)cc(-c4cncs4)c3)nc(C)nc2cc1C(=O)N1CCOCC1 [Example 30, (R)-(4-((1-(3-amino-5-(thiazole-5-yl)phenyl)ethyl)amino)-6-methoxy-2-methylquinazolin-7-yl)(morpholino)methanone]	50 to 100
CCNc1cc([C@@H](C)Nc2nc(C)nc3cc(C(=O)N4CCOCC4)c(OC)cc23)cc(C(F)(F)F)c1 [Example 31, (R)-(4-((1-(3-(ethylamino)-5-(trifluoromethyl)phenyl)ethyl)amino)-6-methoxy-2-methylquinazolin-7-yl)(morpholino)methanone]	50 to 100
COCCOc1cc2c(N[C@H](C)c3cc(N)cc(C(F)(F)F)c3)nc(C)nc2cc1C(=O)N1CCOCC1 [Example 32, methyl (R)-(4-((1-(3-amino-5-(trifluoromethyl)phenyl)ethyl)amino)-6-(2-methoxyethoxy)-2-methylquinazolin-7-yl)(morpholino)methanone]	> 100
COc1cc2c(N[C@H](C)c3cc(N)cc(C(F)(F)F)c3)nc(CF)nc2cc1C(=O)N1CCOCC1 [Example 33, (R)-(4-((1-(3-amino-5-(trifluoromethyl)phenyl)ethyl)amino)-2-(fluoromethyl)-6-methoxyquinazolin-7-yl)(morpholino)methanone]	> 100
COc1cc2c(N[C@H](C)c3cc(N)cc(C(F)(F)F)c3)nc(C)nc2cc1CN1CCOCC1 [Example 34, (R)-N-(1-(3-amino-5-(trifluoromethyl)phenyl)ethyl)-6-methoxy-2-methyl-7-(morpholinomethyl)quinazoline-4-amine]	> 100
COc1cc2c(N[C@H](C)c3cc(N)cc(C(F)F)c3F)nc(C)nc2cc1CN1CCOCC1 [Example 35, (R)-N-(1-(5-amino-3-(difluoromethyl)-2-fluorophenyl)ethyl)-6-methoxy-2-methyl-7-(morpholinomethyl)quinazoline-4-amine]	≤ 50
COc1cc2c(N[C@H](C)c3cc(N)cc(C(F)(F)F)c3)nc(C)nc2cc1OC1CCOCC1 [Example 36]	50 to 100
COc1cc2c(N[C@H](C)c3cc(N)cc(C(F)F)c3F)nc(C)nc2cc1OC1CCOCC1 [Example 37, (R)-N-(1-(5-amino-3-(difluoromethyl)-2-fluorophenyl)ethyl)-6-methoxy-2-methyl-7-((tetrahydro-2H-pyran-4-yl)oxy)quinazoline-4-amine]	> 100
COc1cc2c(N[C@H](C)c3cc(N)cc(C(F)(F)F)c3)nc(C)nc2cc1OCC1CCOCC1 [Example 38, (R)-N-(1-(3-amino-5-(trifluoromethyl)phenyl)ethyl)-6-methoxy-2-methyl-7-((tetrahydro-2H-pyran-4-yl)methoxy)quinazoline-4-amine]	> 100
COc1cc2c(N[C@H](C)c3cc(N)cc(C(F)(F)F)c3)nc(C)nc2cc1OCC1COC1 [Example 39, (R)-N-(1-(3-amino-5-(trifluoromethyl)phenyl)ethyl)-6-methoxy-2-methyl-7-(oxetane-3-ylmethoxy)quinazoline-4-amine]	> 100
CNc1cc2c(N[C@H](C)c3cc(N)cc(C(F)(F)F)c3)nc(C)nc2cc1C(=O)N1CCOCC1 [Example 40, (R)-(4-((1-(3-amino-5-(trifluoromethyl)phenyl)ethyl)amino)-2-methyl-6-(methylamino)quinazoline-7-yl)(morpholino)methanone]	≤ 50
Cc1nc(N[C@H](C)c2cc(N)cc(C(F)(F)F)c2)c2cc(N(C)C)c(C(=O)N3CCOCC3)cc2n1 [Example 41, (R)-(4-((1-(3-amino-5-(trifluoromethyl)phenyl)ethyl)amino)-6-(dimethylamino)-2-methylquinazoline-7-yl)(morpholino)methanone]	50 to 100
Cc1nc(N[C@H](C)c2cc(N)cc(C(F)(F)F)c2)c2cc(N3CCCC3)c(C(=O)N3CCOCC3)cc2n1 [Example 42, (R)-(4-((1-(3-amino-5-(trifluoromethyl)phenyl)ethyl)amino)-2-methyl-6-(pyrrolidin-1-yl)quinazoline-7-yl)(morpholino)methanone]	> 100
CNc1cc2c(N[C@H](C)c3cc(N)cc(C(F)F)c3F)nc(C)nc2cc1C(=O)N1CCOCC1 [Example 43, (R)-(4-((1-(5-amino-3-(difluoromethyl)-2-fluorophenyl)ethyl)amino)-2-methyl-6-(methylamino)quinazoline-7-yl)(morpholino)methanone]	≤ 50
COCCNc1cc2c(N[C@H](C)c3cc(N)cc(C(F)(F)F)c3)nc(C)nc2cc1C(=O)N1CCOCC1 [Example 44, (R)-(4-((1-(3-amino-5-(trifluoromethyl)phenyl)ethyl)amino)-6-((2-methoxyethyl)amino)-2-methylquinazoline-7-yl)(morpholino)methanone]	50 to 100
Cc1nc(N[C@H](C)c2cc(N)cc(C(F)(F)F)c2)c2cc(NC3CCCC3)c(C(=O)N3CCOCC3)cc2n1 [Example 45, (R)-(4-((1-(3-amino-5-(trifluoromethyl)phenyl)ethyl)amino)-6-(cyclopentylamino)-2-methylquinazoline-7-yl)(morpholino)methanone]	50 to 100
CCNc1cc2c(N[C@H](C)c3cc(N)cc(C(F)(F)F)c3)nc(C)nc2cc1C(=O)N1CCOCC1 [Example 46, (R)-(4-((1-(3-amino-5-(trifluoromethyl)phenyl)ethyl)amino)-6-(ethylamino)-2-methylquinazoline-7-yl)(morpholino)methanone]	50 to 100
Cc1nc(N[C@H](C)c2cc(N)cc(C(F)(F)F)c2)c2cc(NC(C)C)c(C(=O)N3CCOCC3)cc2n1 [Example 47, (R)-(4-((1-(3-amino-5-(trifluoromethyl)phenyl)ethyl)amino)-6-(isopropylamino)-2-methylquinazoline-7-yl)(morpholino)methanone]	50 to 100
Cc1nc(N[C@H](C)c2cc(N)cc(C(F)(F)F)c2)c2cc(NC3CCOCC3)c(C(=O)N3CCOCC3)cc2n1 [Example 48, (R)-(4-((1-(3-amino-5-(trifluoromethyl)phenyl)ethyl)amino)-2-methyl-6-((tetrahydro-2H-pyran-4-yl)amino)quinazoline-7-yl)(morpholino)methanone]	> 100
CNc1cc2c(N[C@H](C)c3cc(N)cc(C(F)(F)F)c3)nc(C)nc2cc1CN1CCOCC1 [Example 49, (R)-N^4-(1-(3-amino-5-(trifluoromethyl)phenyl)ethyl)-N^6,2-dimethyl-7-(morpholinomethyl)quinazoline-4,6-diamine]	50 to 100
